Test results as given in ChEMBL document CHEMBL1146750, “Design, synthesis and evaluation of potential inhibitors of HIV gp120-CD4 interactions” (Bioorg Med Chem Lett, 2004).

Columns and labels:
[1] = Toxicity against HIV cells; type: cell-based; settings: human immunodeficiency virus 1
[2] = tested on: Human immunodeficiency virus 1; test: Inhibition of HIV-cell fusion was determined at 10 uM by using cellular FIGS assay; Inactive; type: functional, organism-based
[3] = tested on: Human immunodeficiency virus 1; test: Inhibition of HIV-specific CD4-gp120 interaction was determined using recombinant protein; type: functional
[4] = tested on: Human immunodeficiency virus 1; test: Inhibition of HIV-cell fusion was determined by using cellular FIGS assay; type: functional, organism-based
[5] = Therapeutic index in C8166 cell lines was determined; type: cell-based; settings: human, C8166 cells; read-out: TC50 (the source's name)
[6] = tested on: C8166; test: Inhibition of HIV-1 IIIB infections in C8166 cell lines was determined; 4-8 uM; type: functional, cell-based; settings: Homo sapiens
[7] = tested on: C8166; test: Inhibition of HIV-1 IIIB infections in C8166 cell lines was determined; Range is 4-8 uM; type: functional, cell-based; settings: Homo sapiens

IC50 [2] | Compound | Activity [1] [µM] | further results
Not Active | N=C(N)c1cccc(OCc2cccc([N+](=O)[O-])c2)c1 | 100 | –
Not Active | N=C(N)c1cccc(OCc2ccc(Br)cc2)c1 | 100 | –
Not Active | Cc1ccc(COc2cccc(C(=N)N)c2)cc1 | 100 | –
Not Active | N=C(N)c1cccc(OCc2ccc(Cl)cc2)c1 | 100 | –
Not Active | N=C(N)c1cccc(OCc2ccccc2)c1 | 100 | –
Not Active | N=C(N)c1cccc(OCc2ccc(OCc3ccccc3)cc2)c1 | 100 | –

The next lines start with the molecule.

Compound | IC50 [2] | Activity [1] [µM] | further results
Cl.N=C(N)Nc1cccc(OCc2ccccc2)c1 | – | – | Inhibition [3]: 5 mM; IC50 [4]: 131 µM; CC50 [5]: 40 µM; EC50 [6]: 8 µM
N=C(N)c1cccc(Oc2ccccc2)c1 | Not Active | 100 | –
Cl.N=C(N)Nc1cccc(Oc2ccccc2)c1 | – | – | Inhibition [3]: 5 mM; IC50 [4]: 167 µM; EC50 [7]: 8 µM; CC50 [5]: 20 µM
N=C(N)Nc1cccc(OCc2ccc(Br)cc2)c1.O=C(O)C(F)(F)F | Not Active | 100 | –
N=C(N)Nc1cccc(OCc2ccc(Cl)cc2)c1.O=C(O)C(F)(F)F | Not Active | 100 | –
